Measurements reported in patent US20250376507A1, “NOVEL TUMOR ANTIGEN-TARGETING ANTICANCER AGENT” (INDUSTRY FOUNDATION OF CHONNAM NATIONAL UNIVERSITY, priority 2022, published 2025).

Assays:
CT-26 cells = experiment: Cell viability (CCK-8) of CT-26 cells; format: cell-based, mouse; settings: 4 h pretreatment with anticancer agent alone
Description: CT-26 and MC-38 cells (10^4 cells per well) were seeded into three wells of a 96-well plate and incubated at 37° C. The next day, the culture medium was replaced with 100 μL of fresh medium containing the above concentrations of anticancer agents. After incubation at 37° C. for 4 h, the culture medium was removed and the cells were washed three times with PBS. […] Finally, CCK-8 reagent (10 μL/well) was added for 3 h at 37° C., and the amount of color in each sample was measured at OD450.

CT-26 tumor = experiment: In vivo anti-cancer efficacy in CT-26 tumor-bearing mice
Description: CT-26 and MC-38 tumor cells (106 in 100 μL PBS) were implanted subcutaneously into the right flanks of 6-week-old BALB/c and C57BL/6 female mice (Orient company, Korea), respectively. When the tumors reached about 100 mm^3, the tumor-bearing mice were injected intraperitoneally with anticancer agents (15 mg/kg GEM, 10 mg/kg DOX or 2 mg/kg MTX) three times every 2 days. Simultaneously, the mice were injected intravenously with the PASylated recombinant proteins of the present invention five times every 2 days. The length (L), width (W), and height (H) of each tumor were recorded every 3 days using a digital caliper, and the tumor volume (mm3) was calculated using the following formula (L×H×W)/2. Mice were euthanized when tumors were ˜1,500 mm^3 and all animal experiments were performed in accordance with the general principles and procedures outlined in the National Institutes of Health Guidelines, and all protocols were approved by the Chonnam National University Animal Care and Use Committee (permit number: HCRL 16-001).

| Structure (SMILES) | decrease in cell viability by pretreatment with anticancer agents (CT-26 cells) [%] | average tumor weight (CT-26 tumor; day 12, combination with DOX, 8 IU/mouse) [mg] | tumor growth (CT-26 tumor; dose-finding study, DOX 10 mg/kg i.p. x3, CRT3LP i.v. x5, n=3) |
| --- | --- | --- | --- |
| COc1cccc2c1C(=O)c1c(O)c3c(c(O)c1C2=O)C[C@@](O)(C(=O)CO)C[C@@H]3O[C@H]1C[C@H](N)[C@H](O)[C@H](C)O1 [DOX, doxorubicin, reference compound] | 57.9 | 304.8 | grew more slowly than untreated tumors |
| Nc1ccn([C@@H]2O[C@H](CO)[C@@H](O)C2(F)F)c(=O)n1 [GEM, gemcitabine, reference compound] | 45.1 | – | – |
| O=C1c2c(O)ccc(O)c2C(=O)c2c(NCCNCCO)ccc(NCCNCCO)c21 [MTX, mitozantrone, reference compound] | 62.3 | – | – |
